Assay results: US20080025962A1, “Remedy for Alzheimer's Disease” (AnGesMG,Inc., priority 2005, published 2008)
“Also recorded” adds a separate entry of the source.

Key:
[1] = system: Human brain microvascular endothelial cells (arterial); test: Cell growth (cell count) of artery endothelial cells after Aβ stimulation; assay type: cell-based; details: for Cell count (relative to control as 100): Artery endothelial cells
Description: (§1) Human brain microvascular endothelial cells (HBMEC), human umbilical artery endothelial cells (HUAEC), human umbilical vein endothelial cells (HUVEC) and human aortic smooth muscle cells (HSMC) were obtained from Applied Cell Biology Research Institute. The cells were cultured using a modified MCDB131 medium supplemented with 2% or 10% FBS; those subcultured over 3 to 6 passages were used in the experiments described below.
(§2) Human brain microvascular endothelial cells (arterial and venous) cultured in a 12-well plate by the above-described method were stimulated with Aβ1-40 (0.05 μM, 0.5 μM and 5 μM), Aβ1-42 (0.5 μM), Aβ40-1 (0.5 μM), and control (no Aβ derivative added) for 72 hours. Aβ40-1 has the sequence reverse to that of Aβ1-40. This was used as the control peptide. Next, the number of cells was counted manually using a hemocytometer.

endothelial cells = test: Endothelial cell migration, Boyden chamber assay; assay type: cell-based, human; details: VEGF 10 ng/ml; for Effect on endothelial migration: Boyden chamber
Description: as §1
Next, endothelial cell migration was examined using Boyden chamber assay. Briefly, an EBM-2 medium comprising VEGF (10 ng/ml), Aβ1-40 (0.5 μM and 5 μM)+VEGF (10 ng/ml), Aβ40-1 (0.5 μM)+VEGF (10 ng/ml), 10% FBS or control (no Aβ derivative added) was placed in the lower section of a chamber. 5×10^4 endothelial cells (in 50 μL of EBM-2 supplemented with 0.5% bovine serum albumin) were seeded into the upper section of the chamber. Cell migration was measured by counting the cells in four highly magnified fields of vision (×40). Three experiments were performed for each group. (mean ±standard deviation: P<0.05)
The unit of measurement is in cell count/field of vision.

Akt = test: Western blot assay, Akt phosphorylation; assay type: cell-based, human; details: VEGF 10 ng/mL, Aβ1-40 0.5 μM, up to 40 minutes
Description: (§3) After the EC reached an 80% confluence, the medium was exchanged with an FBS-free fresh medium, and the EC was allowed to stand for 4 hours. Next, the cells were stimulated with human VEGF (10 ng/mL) and Aβ1-40 (0.5 μM) for up to 40 minutes. Total cell protein extract from human endothelial cells was separated on 12.5% SDS-polyacrylamide gel, and transferred to a nitrocellulose membrane. The membrane was subjected to Western blotting using antibodies against human Akt, phosphorylated Akt and phosphorylated ERK (Cell Signaling).

[2] = system: human umbilical vein endothelial cells; test: EC vessel formation on Matrigel, vein endothelial cells; assay type: cell-based; details: 72 hours stimulation, 18 hours on Matrigel
Description: as §1
(§4) Human umbilical artery endothelial cells and human umbilical vein endothelial cells were stimulated with Aβ1-40 (0.5 μM and 5 μM), Aβ40-1 (0.5 μM), and control (no Aβ derivative added) for 72 hours; after reaching an 80% confluence, endothelial cells were then washed with PBS, trypsinated, and cultured on a 6-well culture plate coated with Matrigel basal membrane matrix (Becton Dickinson Labware) for 18 hours. The cells on the Matrigel were photographed, and the full-length was measured using an NIH image analyzer.
(§5) The unit of measurement is in pixel.

Human SMC = test: ELISA assay of VEGF level in SMC culture; assay type: cell-based; details: 48 hours after stimulation
Description: as §1
Human SMC was cultured in a 12-well culture plate of an MCDB medium comprising 10% FBS. 48 hours after Aβ1-40 stimulation, the VEGF level in each well was tested by enzyme immunoassay (R&D System).

ERK = test: Western blot assay, ERK phosphorylation; assay type: cell-based, human; details: VEGF 10 ng/mL, Aβ1-40 0.5 μM, up to 40 minutes
Description: as §3

[3] = system: Human brain microvascular endothelial cells (venous); test: Cell growth (cell count) of venous endothelial cells after Aβ stimulation; assay type: cell-based; details: 72 hours
Description: as §1, §2

[4] = system: Human umbilical artery endothelial cells; test: EC vessel formation on Matrigel, artery endothelial cells; assay type: cell-based; details: for Full-length of cells on Matrigel, Mean value: Artery endothelial cells, 72 hours stimulation, 18 hours on Matrigel
Description: as §1, §4, §5

[5] = system: low-density monocytes from the spleen of a C57BL/6J mouse; test: Adult vascular stem cell differentiation assay; assay type: cell-based; details: Dil-acetylated LDL and BS-1 double staining; 4 days of cultivation
Description: Briefly, low-density monocytes were isolated from the spleen of a C57BL/6J mouse by a density centrifugation method using Histopaque-1083 (Sigma, St. Louis, Mo.). The cells were seeded onto a 4-well glass slide (Nunc International) coated with rat vitronectin (Sigma), and cultured in a medium comprising 2% heat inactivated defined FBS. The medium was supplemented with the endothelial growth supplementation kit, EGM-2MV single aliquot (Clonetics).
After 4 days of cultivation, the cells were incubated with the addition of acetylated LDL (Biomedical Technologies, Stoughton, Mass.), and stained with FITC-conjugated Griffonia simplicifolia lectin I (BS1-lectin) (Vector Laboratories). In 15 fields of vision at 40× magnification, the number of cells double stained with acLDL-Dil and BS1 was counted for each sample as endothelial precursors.

c57/BL6J mice = test: Matrigel plug transplant assay; assay type: in vivo, mouse
Description: Age-matched male c57/BL6J mice at 8 weeks of age were given 500 μL of Matrigel comprising 50 ng/mL VEGF and Aβ1-40 (5 μM), and 37 units of heparin by subcutaneous injection. Seven days later, the Matrigel plug was carefully recovered from each mouse, washed with phosphate-buffered saline (PBS) three times, and stored under freezing at −20° C. A section ([…]) of the frozen plug was fixed in ice-cooled acetone, and then stained with rat anti-mouse CD31 primary antibody (Pharmingen), FITC-conjugated anti-α smooth muscle actin antibody (Sigma) and Alexa-conjugated goat anti-rat secondary antibody (Molecular Probe).
Blood vessel density in the stained section was evaluated by fluorescence intensity using the NIH image software. The hemoglobin content in each plug was measured as an index of adult vascular regeneration.

[6] = Matrigel plug with 50 ng/mL VEGF and Aβ1-40 (5 μM), subcutaneous, seven days

Aβ1-42: β-amyloid species longer than Aβ1-40 by two residues on the C-terminal side
Toxic effect on endothelial cells (necrotized cells observed) ([1]; 0.5 μM, 72 hours, FIG. 2): toxic effect on endothelial cells

vascular endothelial growth factor [VEGF]
Effect on endothelial migration (endothelial cells): endothelial migration was caused by vasculogenesis by VEGF
Cell migration, Mean value (endothelial cells; substance in lower section of chamber, Aβ1-40 0.5 μM and 5 μM, Aβ40-1 0.5 μM): 100.018 cell count/field of vision
Intracellular Akt phosphorylation (Akt): stimulated

β-amyloid 1-40 [Aβ1-40]
Cell count (relative to control as 100) ([1]; 0.05 μm, 72 hours): 78 ± 9.481
Cell count (relative to control as 100) ([1]; 0.5 μm, 72 hours): 75 ± 8.011
Cell count (relative to control as 100) ([1]; 5 μm, 72 hours): 73 ± 11.699
Effect on growth of human brain microvascular endothelial cells ([1]; text statement for arterial and venous cells, more conspicuous in arteries): suppressed the growth of human brain microvascular endothelial cells
Full-length of cells on Matrigel, Mean value ([2]; 0.5 μm): 10599.000 pixel
Full-length of cells on Matrigel, Mean value ([2]; 5 μm): 9884.333 pixel
Effect on endothelial migration (endothelial cells): the effect was inhibited
Effect on VEGF secretion from VSMC (Human SMC): no direct effect on VEGF secretion from VSMC
VEGF level, Mean value (Human SMC; DSF, enzyme immunoassay): 0.080
ERK phosphorylation caused by VEGF (ERK): no effect on the ERK phosphorylation caused by VEGF
Cell count (relative to control as 100) ([3]; 0.05 μm): 80 ± 18.987
Cell count (relative to control as 100) ([3]; 0.5 μm): 73 ± 11.392
Cell count (relative to control as 100) ([3]; 5 μm): 70 ± 5.968
Intracellular Akt phosphorylation (Akt): inhibited
Full-length of cells on Matrigel, Mean value ([4]; 0.5 μm): 8719.333 pixel
Full-length of cells on Matrigel, Mean value ([4]; 5 μm): 7951.167 pixel
Effect on EC vessel formation on Matrigel ([4]; text statement for Tables 2 and 3): suppressed EC vessel formation on Matrigel
Effect on growth and differentiation of vascular stem/precursor cells [5]: inhibitory effect on the differentiation of vascular stem cells; also recorded: suppressed the growth and differentiation of the cultured vascular precursor cells
Blood vessel density, Mean value (c57/BL6J mice; [6]): 825.800 pixel
Hemoglobin content, Mean value (c57/BL6J mice; [6]): 0.084 OD 450/tissue mg
Effect on adult vascular regeneration in vivo (c57/BL6J mice; Matrigel plug, mice): suppressive effect on adult vascular regeneration in vivo
